# Test results reported in patent US20180360972A1, “THERAPEUTIC COMPOUNDS” (REGENTS OF THE UNIVERSITY OF MINNESOTA, priority 2017, published 2018).
# “Also recorded” adds a separate entry of the source. Square brackets hold non-standard residues; d marks the D form. Peptide text beside a SMILES is read from it.
# Columns and labels:
# [1] = target: T1, hMC4R (Homo sapiens, UniProt P32245); experiment: cAMP Signaling | EC50 (nM)
# T1 construct: Flag; expressed in transfected cells
# Protocol: Table printed on a drawing sheet, Figure 20
# The cAMP signaling potency was determined by AlphaScreen™ assays. […] The reported errors are the standard error of the mean (SEM) determined from at least three independent experiments. Changes less than 3-fold were considered to be within the inherent experimental assay error.
# Target sequence in this assay (P32245 whole entry, looked up): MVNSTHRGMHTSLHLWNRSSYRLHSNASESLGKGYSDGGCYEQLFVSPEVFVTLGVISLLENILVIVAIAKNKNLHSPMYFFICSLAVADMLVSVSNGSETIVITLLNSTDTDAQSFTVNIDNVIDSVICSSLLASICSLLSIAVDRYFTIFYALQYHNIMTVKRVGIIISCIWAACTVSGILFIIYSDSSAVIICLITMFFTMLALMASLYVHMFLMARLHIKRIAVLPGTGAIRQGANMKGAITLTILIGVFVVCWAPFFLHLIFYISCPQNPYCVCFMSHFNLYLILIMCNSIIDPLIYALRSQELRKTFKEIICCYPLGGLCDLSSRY
# [2] = target: T1, hMC4R; experiment: β-Arrestin Recruitment | EC50 (nM)
# Target sequence in this assay (P32245 whole entry, looked up): as above
# [3] = target: mMC4R-NanoLuc and mMC4R-HaloTag homodimer (Mus musculus, UniProt P56450); experiment: NanoBRET ligand-dependent modulation of BRET signal; conditions: for change in BRET signal (in words): 10^−5, 10^−7 and 10^−9 M vs assay buffer; for reduction in BRET signal compared to basal signal: ligand at 10 μM
# Sequence of mMC4R-NanoLuc and mMC4R-HaloTag homodimer (P56450 whole entry): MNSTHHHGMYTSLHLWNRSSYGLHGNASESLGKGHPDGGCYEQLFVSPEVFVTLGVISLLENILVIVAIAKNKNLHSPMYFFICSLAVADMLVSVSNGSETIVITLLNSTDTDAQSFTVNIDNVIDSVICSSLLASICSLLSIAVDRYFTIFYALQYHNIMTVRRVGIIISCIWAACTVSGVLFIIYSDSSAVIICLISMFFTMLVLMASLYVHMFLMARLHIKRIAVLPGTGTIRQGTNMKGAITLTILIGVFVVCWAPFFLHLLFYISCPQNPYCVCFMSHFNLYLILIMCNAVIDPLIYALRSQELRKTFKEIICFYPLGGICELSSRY
# Sequence of mMC4R-NanoLuc and mMC4R-HaloTag homodimer (P56450 whole entry): as above
# Protocol: On the first day, cells were plated into 6 well plates in the morning. In the afternoon of the same day, cells were transiently transfected with mMC4R-NanoLuc® fusion protein and the MC4R-HaloTag® fusion protein by adding FuGene6 Transfection (8 μL/well, Promega), DNA (2 μg/well) in OptiMem medium (Invitrogen) at a total volume of 100 μL/well. […] Cells were incubated with transfection reagent overnight at 5% CO2 at 37° C.
# This provides the background signal and was subtracted from the final experimental signal. Plates were then developed 48 to 60 hours after transfection. Two hours before the plates were developed, 10 μL of a 10× aliquot of the ligand diluted in assay buffer was added to each well to yield the final in well concentration (10^−5, 10^−7, or 10^−9M) of each compound. For the assay buffer control, 10 μL of assay buffer was added instead of compound. […] The standard error of the mean (SEM) was derived from at least three independent experiments.
# [4] = target: T1, hMC4R; experiment: PRESTO-Tango β-arrestin recruitment assay; assay type: cell-based; conditions: at 10 μM
# Protocol: The PRESTO-Tango technology is an open-source resource that has been utilized to identify ligands for orphan receptors based on β-arrestin recruitment.
# The plasmids and assay technology was kindly provided by the Bryan Roth laboratory (University of North Carolina at Chapel Hill) and are now available through ADDGENE (Kit # 1000000068).
# The first day of the assay, HTLA cells were plated at approximately 1×10^6 cells per 10 cm plate and grown to 20-40% confluency. […] The third day, cells were removed from 10 cm plates using Gibco® Versene solution and pelleted by centrifugation (Sorvall Super T21 high speed centrifuge, swinging bucket rotor) at 800 rpm for five minutes at room temperature. Cells were manually counted on a hemocytometer and resuspended in 1% dialyzed FBS and 1% penicillin/streptomycin in DMEM to a final concentration of 400,000 cells/mL. […] Stimulated cells were incubated for 18 hours in 5% CO2 at 37° C. On the fifth day, the assay buffer and cell medium was removed by aspiration. […] After incubation, luminescence was then read on an EnSpire™ Alpha plate reader using a pre-normalized assay protocol for luminescence set by the manufacturer. Dose response curves were analyzed using the PRISM program (v4.0; GraphPad Inc.).
# Target sequence in this assay (P32245 whole entry): as the sequence (P32245 whole entry, looked up) above
# [5] = tested on: wild type mice; experiment: ICV administration, conventional cages, wild type mice; assay type: in vivo; conditions: preliminary conventional cage experiments; fasting paradigm
# Protocol: (§1) All experiments were performed in accordance with the Institutional Animal Care and Use Committee (IACUC) at the University of Minnesota. Female and male littermates with mixed background from C57BL/6J and 129/Sv inbred strains were 8 weeks old at the time of surgeries. Mice were individually housed after surgeries and for the remainder of the experiment. Mice were maintained on a 12 hr light/dark cycle (Lights off was at 11:59 AM) in a temperature controlled room (23-25° C.). In the nocturnal feeding paradigm, mice had free access to normal chow (Harlan Teklad 2018 Diet: 18.6% crude protein, 6.2% crude fat, 3.5% crude fiber, with energy density of 3.1 kcal/g). […] Mice had free access to tap water throughout all the experiments. The cannula placement validation studies and conventional cage studies were performed in standard mouse polycarbonate conventional cages provided by University of Minnesota's Research Animal Resources (RAR). Weekly cage changes were conducted by lab research staff.
# (§2) Mice were anesthetize with a mixture of ketamine (100 mg/kg) and xylazine (5 mg/kg) and were positioned in a stereotaxic apparatus (David Kopf Instruments). A 26-gauge cannula (Cat# 81C315GS4SPC; PlasticsOne, Roanoke, Va.) was inserted in the lateral cerebral ventricle at the coordinates 1.0 mm lateral and 0.46 mm posterior to bregma and 2.3 mm ventral to the skull (Franklin, K. B. J. & Paxinos, G. The Mouse Brain in Stereotaxic Coordinates. (Academic Press, 1997)).
# (§3) Each mouse was administered hPYY and saline on different days following a crossover design in the nocturnal feeding paradigm. In the nocturnal paradigm, compound is administered 2 hours prior to lights out with free access to food and water throughout the entire experiment. There was at least a 4 day washout period between administration to ensure that normal feeding patterns and body weight returned. Food intake and body weight were manually measured 2, 4, and 6 hours after hPYY or saline administration. A mouse with a validated cannula placement for the TSE cage experiments consumed at least 1.0 g more after hPYY administration compared to saline administration 4 hours post-administration.
# (§4) As stated above, conventional cage experiments were performed in standard mouse polycarbonate conventional cages. […] All experiments followed a cross-over paradigm in which the mouse received saline and compound on different days with a washout period in between each treatment. Statistical analysis was performed using SPSS V23 software (IBM) using a multivariate general linear model followed by a Bonferroni's post hoc test. Results are presented as Mean±SEM. Statistically significant was considered p<0.05.
# [6] = tested on: male MC3RKO mice; experiment: ICV administration, TSE metabolic cages, male MC3RKO mice; assay type: in vivo; conditions: nocturnal paradigm; 2.5 to 5 nmols
# Protocol: as §1, §2, §4
# In order to more clearly understand the effects of the biased agonism at the MC4R, the effects of administration of CJL-5-58 was explored in MC3R knockout (KO) mice and MC4RKO mice. […] Adverse reactions included two mice dying after the 5 nmol dose. […] The large error in activity may serve as an indication of toxicity. It is currently difficult to decipher whether the adverse reactions observed are due to paradigm effects, genotype difference, or compound toxicity.
# [7] = tested on: male wild type mice; assay type: in vivo; conditions: nocturnal paradigm; 5.0 or 2.5 nmols CJL-1-124
# Protocol: as §1, §2, §3, §4
# [8] = tested on: male MC4RKO mice; experiment: ICV administration, conventional cages, male MC4RKO mice; assay type: in vivo; conditions: ICV 2.5 to 5 nmols; conventional cages
# Protocol: as §1, §2, §4
# In male MC4RKO mice, CJL-5-58 was administered at 5 nmols in both a nocturnal paradigm and a fasting-refeeding paradigm in standard conventional cages (FIG. 15). The dose was well handled in the nocturnal paradigm, but minimal effect was observed.
# [9] = target: T1, hMC4R; experiment: AlphaScreen cAMP functional bioassay, hMC4R; assay type: cell-based; conditions: HEK293 cells stably expressing hMC4R
# Protocol: Upon agonist stimulation, melanocortin receptors are known to signal through a Gαs-protein mediated signaling pathway that results in intracellular cAMP accumulation.
# Stable populations were selected for using G418 selection (0.7-1.0 mg/mL) and used in bioassays unless indicated otherwise. In vitro experimental ligands were dissolved to a 10^−2 M stock in DMSO and stored at −20° C. Subsequent dilutions were performed in each assay's specific buffer to achieve the final concentration in the well. The ligands were assayed as TFA salts.
# AlphaScreen cAMP Functional Bioassay
# The AlphaScreen® assay was performed as described by manufacturer.
# Cells were removed from plates using Gibco® Versene solution and pelleted by centrifugation (Sorvall Super T21 high speed centrifuge, swinging bucket rotor) at 800 rpm for five minutes. […] A 10 μL aliquot of cell suspension was counted manually using a hemocytometer after addition of Trypan blue dye (BioRad). Cells were again pelleted by centrifugation, and DPBS was gently aspirated. The pelleted cells were then resuspended in a solution of freshly made stimulation buffer (Hank's Balanced Salt Solution [HBSS 10× [−] sodium bicarbonate] and [−] phenol red, Gibco®], 0.5 mM isobutylmethylxanthine [IBMX], 5 mM HEPES buffer solution [1M, Gibco®], 0.1% bovine serum albumin [BSA] in Milli-Q water, pH=7.4) and anti-cAMP acceptor beads (1.0 unit per well, AlphaScreen®). […] The cells were then stimulated with ligand diluted in stimulation buffer to achieve their final concentrations in the well ranging from 10^−13 to 10^−4 M. The stimulated plates were incubated in a dark laboratory drawer at room temperature for two hours.
# Meanwhile, a biotinylated cAMP/streptavidin donor bead working solution was made by adding biotinylated cAMP (1 Unit/well, AlphaScreen®) and streptavidin donor beads (1 Unit/well, AlphaScreen®) to a lysis buffer (10% Tween-20, 5 mM HEPES buffer solution [1M, Gibco®], 0.1% bovine serum albumin [BSA] in Milli-Q water, pH=7.4). After the two hour stimulation, the biotinylated cAMP/Streptavidin donor bead working solution was added to each well under green light and mixed well by pipetting up and down. The cells were incubated for another two hours at room temperature in a dark drawer at room temperature. The plate was then read on an EnSpire™ Alpha plate reader using a pre-normalized assay protocol set by the manufacturer. Assays were performed with duplicate data points on each plate and repeated in at least three independent experiments.
# Dose response curves were analyzed using the PRISM program (v4.0; GraphPad Inc.).
# Target sequence in this assay (P32245 whole entry): as the sequence (P32245 whole entry, looked up) above
Compound,EC50 [1] [nM],EC50 [2] [nM],change in BRET signal (in words) [3],reduction in BRET signal compared to basal signal [3] [%],further results
"CC(=O)N[C@@H](Cc1c[nH]cn1)C(=O)N[C@H](Cc1ccccc1)C(=O)N[C@@H](CCCNC(=N)N)C(=O)N[C@@H](Cc1c[nH]c2ccccc12)C(=O)N1CCC[C@H]1C(=O)NCC(=O)N1CCC[C@H]1C(=O)NCC(=O)N1CCC[C@H]1C(=O)NCC(=O)N1CCC[C@H]1C(=O)NCC(=O)N1CCC[C@H]1C(=O)NCC(=O)N1CCC[C@H]1C(=O)NCC(N)=O [CJL5-35-1, Ac-His-DPhe-Arg-Trp-(Pro-Gly)6-NH2] (Ac-H[dF]RWPGPGPGPGPGPG-NH2)",5.5 ± 0.7,1600 ± 600,,,
"CC(=O)N[C@@H](Cc1c[nH]cn1)C(=O)N[C@H](Cc1ccc2ccccc2c1)C(=O)N[C@@H](CCCNC(=N)N)C(=O)N[C@@H](Cc1c[nH]c2ccccc12)C(N)=O [CJL-1-80, Ac-His-DNal(2′)-Arg-Trp-NH2]",,,no significant changes in BRET signal,,β-arrestin response compared to maximal efficacy of NDP-MSH [4]: 30%
CC(=O)N[C@@H](Cc1c[nH]cn1)C(=O)N[C@H](Cc1ccccc1)C(=O)N[C@@H](CCCNC(=N)N)C(=O)N[C@@H](Cc1c[nH]c2ccccc12)C(=O)NCCCOCCOCCOCCCNC(=O)COCC(=O)N[C@@H](Cc1c[nH]cn1)C(=O)N[C@H](Cc1ccccc1)C(=O)N[C@@H](CCCNC(=N)N)C(=O)N[C@@H](Cc1c[nH]c2ccccc12)C(N)=O [CJL-1-87],,,,~15,
"CC(=O)N[C@@H](Cc1cnc[nH]1)C(=O)N[C@H](Cc1ccc2ccccc2c1)C(=O)N[C@@H](CCCNC(=N)N)C(=O)N[C@@H](Cc1c[nH]c2ccccc12)C(=O)NCCCOCCOCCOCCCNC(=O)COCC(=O)N[C@@H](Cc1cnc[nH]1)C(=O)N[C@H](Cc1ccccc1)C(=O)N[C@@H](CCCNC(=N)N)C(=O)N[C@@H](Cc1c[nH]c2ccccc12)C(N)=O [CJL-1-124, Ac-His-DNal(2′)-Arg-Trp-(PEDG20)-His-DPhe-Arg-Trp-NH2]",,,,~8,adverse effects [5]: strong adverse effects; adverse reactions / toxicity [6]: some signs of toxicity were observed; also recorded: Some toxicity was observed; adverse reactions / toxicity [7]: some signs of adverse reactions observed at higher 5 nmol dose; also recorded: Some toxicity was observed; toxicity [8]: some signs of toxicity were observed; also recorded: Some toxicity was observed; cAMP agonist potency (in words) [9]: single digit nanomolar agonists
"Ac-His-DNal(2′)-Arg-Trp-(PEDG20)-(PEDG20)-His-DPhe-Arg-Trp-NH2 [CJL-5-74, MUmBL; linker assigned from order of b161-b164 and b248]",,,,,cAMP agonist potency (in words) [9]: single digit nanomolar agonists
Ac-His-DPhe-Arg-Trp-NH2 [CJL-1-14],,,dose dependent decrease in BRET signal,15,

# Further lines, with some results ahead:
EC50 [1] [nM],EC50 [2] [nM],change in BRET signal (in words) [3],Compound,reduction in BRET signal compared to basal signal [3] [%],further results
0.95 ± 0.08,1900 ± 600,,"CC(=O)N[C@@H](Cc1c[nH]cn1)C(=O)N[C@H](Cc1ccccc1)C(=O)N[C@@H](CCCNC(=N)N)C(=O)N[C@@H](Cc1c[nH]c2ccccc12)C(=O)N1CCC[C@H]1C(=O)NCC(=O)N1CCC[C@H]1C(=O)NCC(=O)N1CCC[C@H]1C(=O)NCC(=O)N1CCC[C@H]1C(=O)NCC(=O)N1CCC[C@H]1C(=O)NCC(=O)N1CCC[C@H]1C(=O)NCC(=O)N[C@@H](Cc1c[nH]cn1)C(=O)N[C@H](Cc1ccccc1)C(=O)N[C@@H](CCCNC(=N)N)C(=O)N[C@@H](Cc1c[nH]c2ccccc12)C(N)=O [CJL-1-31, Ac-His-DPhe-Arg-Trp-(Pro-Gly)6-His-DPhe-Arg-Trp-NH2] (Ac-H[dF]RWPGPGPGPGPGPGH[dF]RW-NH2)",,
1.1 ± 0.07,1500 ± 500,,"N=C(N)NCCC[C@H](NC(=O)[C@@H](Cc1ccccc1)NC(=O)[C@H](Cc1c[nH]cn1)NC(=O)CNC(=O)[C@@H]1CCCN1C(=O)CNC(=O)[C@@H]1CCCN1C(=O)CNC(=O)[C@@H]1CCCN1C(=O)CNC(=O)[C@@H]1CCCN1C(=O)CNC(=O)[C@@H]1CCCN1C(=O)CNC(=O)[C@@H]1CCCN1)C(=O)N[C@@H](Cc1c[nH]c2ccccc12)C(N)=O [CJL-1-41, (Pro-Gly)6-His-DPhe-Arg-Trp-NH2] (H-PGPGPGPGPGPGH[dF]RW-NH2; N-terminus assumed)",,
1.2 ± 0.3,280 ± 40,,"CC(=O)N[C@@H](Cc1c[nH]cn1)C(=O)N[C@H](Cc1ccccc1)C(=O)N[C@@H](CCCNC(=N)N)C(=O)N[C@@H](Cc1c[nH]c2ccccc12)C(=O)NCCCOCCOCCOCCCNC(=O)COCC(=O)NCCCOCCOCCOCCCNC(=O)COCC(=O)N[C@@H](Cc1c[nH]cn1)C(=O)N[C@H](Cc1ccccc1)C(=O)N[C@@H](CCCNC(=N)N)C(=O)N[C@@H](Cc1c[nH]c2ccccc12)C(N)=O [CJL-5-72, Ac-His-DPhe-Arg-Trp-(PEDG20)-(PEDG20)-His-DPhe- Arg-Trp-NH2]",,
,,dose dependent decrease in BRET signal,α-MSH,15,
